Experimental data reported in ChEMBL document CHEMBL4725224, “A novel Golgi mannosidase inhibitor: Molecular design, synthesis, enzyme inhibition, and inhibition of spheroid formation” (Bioorg Med Chem, 2020).
Calls of active or inactive are those of the source. No cut-off for these calls is given here.

Columns and labels:
Format in all cases: cell-based
HeLa [1] = test: Inhibition of Golgi mannosidase in human HeLa cells assessed as high mannose type N-glycans accumulation by measuring increase in fluorescence intensity using ConA-AF488 at 10 uM by fluorescence microscopy analysis (reference value: 100%); conditions: values are per cent of control
HeLa [2] = test: Inhibition of Golgi mannosidase in human HeLa cells assessed as high mannose type N-glycans accumulation by measuring increase in fluorescence area using ConA-AF488 at 10 uM by fluorescence microscopy analysis (reference value: 100%); conditions: values are per cent of control
HeLa [3] = test: Inhibition of Golgi mannosidase in human HeLa cells assessed as high mannose type N-glycans accumulation by measuring reduction in cell length using ConA-AF488 at 10 uM by fluorescence microscopy analysis (reference value: 100%); conditions: time day <=7
HeLa [4] = test: Inhibition of Golgi mannosidase in human HeLa cells assessed as intracellular high mannose type N-glycans accumulation by measuring increase in fluorescence intensity using ConA-AF488 at 10 uM by confocal laser scanning microscopy analysis
OVCAR-3 = test: Inhibition of Golgi mannosidase in human OVCAR-3 cells assessed as inhibition of spheroid formation by measuring size at 10 uM upto 7 days by light microscopy analysis relative to control; conditions: time day <=7

Structure (SMILES)	response, % of control (HeLa [1])	response, % of control (HeLa [2])	inhibition (HeLa [3])	inhibition (HeLa [4])	inhibition (OVCAR-3)
c1ccc(C(CCNCc2ccc3c(c2)OCO3)c2ccccc2)cc1	114%	113%	28%	–	–
Clc1ccc(CNCCC(c2ccccc2)c2ccc3c(c2)OCO3)cc1 (centres undefined)	111%	115%	18%	–	–
COc1ccc(C(CCNCc2ccc(N(C)C)cc2)c2ccc3c(c2)OCO3)cc1 (centres undefined)	–	148%	28%	Active	Active
COc1ccc(C(CCNCc2ccc(Cl)cc2)c2ccc3c(c2)OCO3)cc1 (centres undefined)	–	150%	27%	–	–
Clc1ccc(CNCCC(c2ccccc2)c2ccccc2)cc1	134%	127%	29%	–	–
c1ccc(CNCCC(c2ccccc2)c2ccc3c(c2)OCO3)cc1 (centres undefined)	–	–	21%	–	–
CN(C)c1ccc(CNCCC(c2ccccc2)c2ccc3c(c2)OCO3)cc1 (centres undefined)	114%	114%	23%	–	–
COc1ccc(C(CCNCc2ccc3c(c2)OCO3)c2ccc3c(c2)OCO3)cc1 (centres undefined)	110%	108%	26%	–	–
CN(C)c1ccc(CNCCC(c2ccccc2)c2ccccc2)cc1	–	–	32%	–	–
c1ccc(C(CCNCc2ccc3c(c2)OCO3)c2ccc3c(c2)OCO3)cc1 (centres undefined)	104%	113%	31%	–	–
O=C1N[C@@H]2[C@@H](O)[C@@H](O)[C@H](O)[C@@H](CO)N2C1=O	–	–	13%	Active	inactive
